Assay results published in PMC3996367, “Profiling of drugs and environmental chemicals for functional impairment of neural crest migration in a novel stem cell-based test battery” (Archives of Toxicology, 2014).

Key:
[1] = parameters: method as in US EPA [2006]; settings: ref US EPA [2006]; cited from earlier work
rats = settings: cited from earlier work
[2] = parameters: method as in US EPA [2006]; settings: ref US EPA [2006]; cited from earlier work; remark: listed apart in the source
Xenopus laevis embryos = system: Xenopus laevis embryos; parameters: method as in Di Renzo et al. (2011); settings: treated during early neurulation; craniofacial defects, bent forebrain, abnormal hindbrain segmentation; ref Di Renzo et al. (2011); cited from earlier work
[3] = system: hESC-derived neural crest cells (NCC); settings: human
[4] = system: mESC-derived neural stem cells (mESCn); settings: mouse
HEK293 cells = settings: human
[5] = system: migration of hESC-derived neural crest cells (NCC); assay: MINC assay (migration inhibition of neural crest cells, UKN2); settings: 48 h, in a non-cytotoxic concentration range

In the case of CC(C)(C)C(=O)C(Oc1ccc(Cl)cc1)n1cncn1 (stereo not drawn) [Triadimefon], the “Octanol:water partition (Kow)” value [1] is listed as 912, the “Dose increasing testosterone levels and related effects in male offspring” value (rats; Wistar rats, perinatal exposure, ref Goetz et al. (2007)) is listed as 47 mg/kg/day and the “Dose causing the same neurotoxic symptoms” value (rats; chronic dietary exposure, male Wistar rats, ref US EPA (2006)) is listed as 54.6 mg/kg/day. For the same molecule, the “Doses at which a range of toxic effects is observed” value (rats; effects on male fertility and CNS toxicity, ref Crowell et al. 2011) was “around 50 mg/kg/day”, the “Dose causing transient CNS toxicity (hyperactivity, stereotyped behavior)” value (rats; single dose, oral gavage, adult male Long-Evans rats, ref Crofton et al. (2011)) was 50 mg/kg and the “Blood:plasma concentration ratio” value [2] was 0.84. For the same molecule, the “Free (unbound) fraction” value [2] was 0.11, the Concentration inducing abnormalities (Xenopus laevis embryos) was 500 µM and the “Concentration for hit finding in NCC (highest non-cytotoxic concentration in the UKN2 test system)” value [3] was 50 µM. For the same molecule, the “Highest non-cytotoxic conc. in mESCn” value [4] was > 50.0 µM, the “Highest non-cytotoxic conc. in HEK293” value (HEK293 cells) was 50.0 µM and the “Effect on NCC migration in concentration-response study” value [5] was “concentration-dependent effect”.
